From patent US20130096088A1, “Inhibitors of Protein Tyrosine Kinase Activity” (METHYLGENE INC., priority 2011, published 2013)
Where two headings read alike, the source gives them in different places.

Assays:
[1] = target: T1, VEGFR2 (KDR) (Homo sapiens, UniProt P35968); test: In vitro receptor tyrosine kinase assay (VEGF receptor KDR), DELFIA; assay type: biochemical; conditions: recombinant GST-VEGFR2 806-1356, ATP 0.6 uM; read-out: VEGFR IC50UM
T1 construct: made in house; host or cells: Sf9 cells (Spodoptera frugiperda), baculovirus
Excerpt: In Vitro Receptor Tyrosine Kinase Assay (VEGF Receptor KDR)
This test measures the ability of compounds to inhibit the enzymatic activity of recombinant human VEGF receptor enzymatic activity.
A 1.6-kb cDNA corresponding to the catalytic domain of VEGFR2 (KDR) (Genbank accession number AF035121 amino acid 806 to 1356) is cloned into the Pst I site of the pDEST20 Gateway vector (Invitrogen) for the production of a GST-tagged version of that enzyme. This construct is used to generate recombinant baculovirus using the Bac-to-Bac™ system according to the manufacturer's instructions (Invitrogen).
The GST-VEGFR2806-1356 protein is expressed in Sf9 cells (Spodoptera frugiperda) upon infection with recombinant baculovirus construct. Briefly, Sf9 cells grown in suspension and maintained in serum-free medium (Sf900 II supplemented with gentamycin) at a cell density of about 2×10^6 cells/ml are infected with the above-mentioned viruses at a multiplicity of infection (MOI) of 0.1 during 72 hours at 27° C. with agitation at 120 rpm on a rotary shaker. Infected cells are harvested by centrifugation at 398 g for 15 min. Cell pellets are frozen at −80° C. until purification is performed.
All steps described in cell extraction and purification are performed at 4° C. Frozen Sf9 cell pellets infected with the GST-VEGFR2806-1356 recombinant baculovirus are thawed and gently resuspended in Buffer A (PBS pH 7.3 supplemented with 1 μg/ml pepstatin, 2 μg/ml Aprotinin and leupeptin, 50 μg/ml PMSF, 50 μg/ml TLCK and 10 μM E64 and 0.5 mM DTT) using 3 ml of buffer per gram of cells. Suspension is Dounce homogenized and 1% Triton X-100 is added to the homogenate after which it is centrifuged at 22500 g, 30 min., 4° C. The supernatant (cell extract) is used as starting material for purification of GST-VEGFR2806-1356.
The supernatant is loaded onto a GST-agarose column (Sigma) equilibrated with PBS pH 7.3. Following a four column volume (CV) wash with PBS pH 7.3+1% Triton X-100 and 4 CV wash with buffer B (50 mM Tris pH 8.0, 20% glycerol and 100 mM NaCl), bound proteins are step eluted with 5 CV of buffer B supplemented with 5 mM DTT and 15 mM glutathion. GST-VEGFR2806-1356 enriched fractions from this chromatography step are pooled based on U.V. trace i.e. fractions with high O.D.280. Final GST-VEGFR2806-1356 protein preparations concentrations are about 0.7 mg/ml with purity approximating 70%. Purified GST-VEGFR2806-1356 protein stocks are aliquoted and frozen at −80° C. prior to use in enzymatic assay.
Inhibition of VEGFR/KDR is measured in a DELFIA™ assay (Perkin Elmer). The substrate poly(Glu4,Tyr) is immobilized onto black high-binding polystyrene 96-well plates. The coated plates are washed and stored at 4° C. During the assay, the enzyme is pre-incubated with inhibitor and Mg-ATP on ice in polypropylene 96-well plates for 4 minutes, and then transferred to the coated plates. The subsequent kinase reaction takes place at 30° C. for 10-30 minutes. ATP concentrations in the assay are 0.6 uM for VEGFR/KDR (2× the Km). Enzyme concentration is 5 nM. After incubation, the kinase reactions are quenched with EDTA and the plates are washed. Phosphorylated product is detected by incubation with Europium-labeled anti-phosphotyrosine MoAb. After washing the plates, bound MoAb is detected by time-resolved fluorescence in a Gemini SpectraMax reader (Molecular Devices). Compounds are evaluated over a range of concentrations, and IC50 values (concentration of compounds giving 50% inhibition of enzymatic activity) are determined.

[2] = system: laser-induced choroidal neovascularization (CNV); test: In vivo choroidal neovascularization (CNV) model; design: species or system rat; conditions: Brown-Norway rats, injection on Day 3, CNV area on Day 10
Excerpt: In Vivo Choroidal Neovascularization (CNV) Model This test measures the capacity of compounds to inhibit CNV progression. CNV is the main cause of severe vision loss in patients suffering from age-related macular degeneration (AMD). Male Brown-Norway rats (Charles River Japan Co., Ltd.) were used in these studies. Rats were anesthetized by intraperitoneal injection of pentobarbital, and the right pupil was dilated with 0.5% tropicamide and 0.5% phenylephrine hydrochloride. The right eye received 6 laser burns between retinal vessels using a slit lamp delivery system of Green laser Photocoagulator (Nidex Inc., Japan), and microscope slide glass with 10 mg/mL hyaluronic acid (SIGMA) used as a contact lens. The laser power was 200 mW for 0.1 second and spot diameter was 100 μm. At the time of laser burn, bubble production was observed; which is an indication of rupture of Bruch's membrane which is important for CNV generation. After animals were anesthetized, and the right pupil dilated (as mentioned above), the right eye of the animal received the compound or vehicle by an injection (3 μL/eye) at doses of 3 or 10 nmol/eye on Day 3. The compounds were dissolved or suspended in CBS, PBS, or other adequate vehicles before injection. On Day 10, the animals were anesthetized with ether, and high molecular weight fluorescein isothiocyanate (FITC)-dextran (SIGMA, 2×10^6 MW) was injected via a tail vein (20 mg/rat). About 30 min after FITC-dextran injection, animals were euthanized by ether or carbon dioxide, and the eyes were removed and fixed with 10% formaline neutral buffer solution. After over 1 hour of fixation, RPE-choroid-sclera flat mounts were obtained by removing cornea, lens and retina from the eyeballs. The flat mounts were mounted in 50% glycerol on a microscope slide, and the portion burned by laser was photographed using a fluorescence microscope (Nikon Corporation, excitation filter: 465-495 nm, absorption filter: 515-555 nm). The CNV area was obtained by measurement of hyper-fluorescence area observed on the photograph using Scion image. The average CNV area of 6 burns was used as an individual value of CNV area, and the average CNV area of compound treated group was compared with that of the vehicle-treated group.

[3] = system: phospho ERK1/2 (T202/Y204) in HUVEC cells; test: VEGF-dependent Erk phosphorylation; assay type: cell-based; conditions: VEGF165 150 ng/ml, Western blot, read-out: P_ERK IC50UM
Excerpt: VEGF-Dependent Erk Phosphorylation
HUVEC cells are purchased from Cambrex Bio Science Walkersville, Inc and cultured according to the vendor's instructions. The full-length coding sequence of VEGF165 is cloned using the Gateway Cloning Technology (Invitrogen) for baculovirus expression Sf9 cells. VEGF165 is purified from conditioned media using a NaCl gradient elution from a HiTrap heparin column (GE Healthcare Life Sciences) followed by an imidazole gradient elution from a HiTrap chelating column (GE Healthcare Life Sciences), then buffer stored in PBS supplemented with 0.1% BSA and filter sterilized
Cells are seeded at 8000 cells/well of a 96 wells plate and grown for 48 hours. Cells are then grown overnight in serum and growth factor-free medium and exposed for 1.5 h to compounds dilutions. Following a 15 min incubation in medium, VEGF165 (150 ng/ml) cells are lysed in ice-cold lysis buffer (50 mM HEPES, pH 7.4, 150 mM NaCl, 1.5 mM MgCl2, 1% Triton X-100, 10% glycerol) containing 1 mM 4-(2 aminoethyl)benzenesulfonyl fluoride hydrochloride, 200 μM sodium orthovanadate, 1 mM sodium fluoride, 10 μg/mL leupeptin, 10 μg/mL aprotinin, 1 μg/mL pepstatin and 50 μg/mL Na-p-tosyl-L-lysine chloromethyl ketone hydrochloride and processed as Western blots to detect anti-phospho ERK1/2 (T202/Y204) (Cell Signaling Technologies).
lysates samples from single treatment wells are separated on 5-20% SDS-PAGE gels and immunobloting is performed using Immobilon polyvinylidene difluoride membranes (Amersham) according to the manufacturer's instructions. The blots are washed in Tris-buffered saline with 0.1% Tween 20 detergent (TBST) and probed for antibodies against phospho-Thr202/Tyr204-ERK (Cell signaling technologies. Chemiluminescence detection (Amersham, ECL plus) is performed according to the manufacturer's instructions using a Storm densitometer (GE Healthcare; 800 PMT, […]) for imaging and densitometry analysis. Values of over the range of dilution are used to prepare IC50 curves using a 4-parameter fit model. These curves are calculated using GraFit

[4] = Rattus norvegicus, 240 h, dose 3 nmol/eye, read-out: Inhibition of CNV Progression (%)

T1 sequence (P35968 806-1356): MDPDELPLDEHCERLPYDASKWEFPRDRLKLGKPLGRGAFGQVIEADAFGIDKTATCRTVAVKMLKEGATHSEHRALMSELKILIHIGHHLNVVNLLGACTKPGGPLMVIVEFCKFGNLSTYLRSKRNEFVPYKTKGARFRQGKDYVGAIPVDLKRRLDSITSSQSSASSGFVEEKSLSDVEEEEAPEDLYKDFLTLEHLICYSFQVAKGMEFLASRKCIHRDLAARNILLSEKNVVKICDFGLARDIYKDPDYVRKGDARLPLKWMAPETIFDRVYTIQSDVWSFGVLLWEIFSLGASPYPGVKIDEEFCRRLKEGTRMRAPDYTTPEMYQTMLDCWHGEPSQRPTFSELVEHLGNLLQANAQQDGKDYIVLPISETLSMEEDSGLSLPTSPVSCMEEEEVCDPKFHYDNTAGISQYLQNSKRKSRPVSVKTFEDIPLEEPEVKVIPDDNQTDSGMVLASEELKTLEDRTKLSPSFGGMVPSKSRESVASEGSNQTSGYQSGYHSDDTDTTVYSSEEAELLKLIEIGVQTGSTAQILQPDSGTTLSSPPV

Row | Structure (SMILES) | IC50 [1] [nM] | inhibition in vivo at 3 nmol/eye [2, 4] [%] | IC50 ([3]; Homo sapiens) [nM] | inhibition in vivo at 10 nmol/eye ([2]; Rattus norvegicus, 240 h, dose 10 nmol/eye, read-out: Inhibition of CNV Progression (%)) [%] | IC50 [3] [nM] | Inhibition of CNV Progression (%) ([2]; dose 3 nmol/eye)
1 | O=C(Nc1ccc(Oc2ccnc3cc(-c4ccc(CN5CCN(C(=O)COP(=O)(O)O)CC5)cn4)sc23)c(F)c1)NC1CC1 [Compound 6, 2-(4-((6-(7-(4-(3-Cyclopropylureido)-2-fluorophenoxy)thieno[3,2-b]pyridin-2-yl)pyridin-3-yl)methyl)piperazin-1-yl)-2-oxoethyl dihydrogen phosphate] | 9 | 20.9 | 0.4 |  |  | 
2 | COCCOCCOCCOCCN1CCN(Cc2ccc(-c3cc4nccc(Oc5ccc(NC(=O)NC6CC6)cc5F)c4s3)nc2)CC1 [Compound 7, 1-(4-(2-(5-((4-(2,5,8,11-Tetraoxamidecan-13-yl)piperazin-1-yl)methyl)pyridin-2-yl)thieno[3,2-b]pyridin-7-yloxy)-3-fluorophenyl)-3-cyclopropylurea] | 6 | 18.1 | 0.2 |  |  | 
3 | COCCOCCOCCOCCn1cc(-c2cc3nccc(Oc4ccc(NC(=O)NC5CC5)cc4F)c3s2)nn1 [Compound 30, 1-(4-(2-(1-(2,5,8,11-Tetraoxamidecan-13-yl)-1H-1,2,3-triazol-4-yl)thieno[3,2-b]pyridin-7-yloxy)-3-fluorophenyl)-3-cyclopropylurea] | 18 | 26.4 | 70 |  |  | 
4 | COCCOCCOCCOCCOc1ccc(NCc2ccc(-c3cc4nccc(Oc5ccc(NC(=O)NC6CC6)cc5F)c4s3)nc2)cc1 [Compound 39] | 33 | 24.7 | 6 |  |  | 
5 | COCCOCCOCCOCCOCCC(=O)N1CCN(Cc2ccc(-c3cc4nccc(Oc5ccc(NC(=O)NC6CC6)cc5F)c4s3)nc2)CC1 [Compound 49] | 8 | 20.9 |  |  |  | 
6 | COCCOCCOCCOC(=O)N1CCN(Cc2ccc(-c3cc4nccc(Oc5ccc(NC(=O)NC6CC6)cc5F)c4s3)nc2)CC1 [Compound 50, 2-(2-(2-Methoxyethoxy)ethoxy)ethyl 4-((6-(7-(4-(3-cyclopropylureido)-2-fluorophenoxy)thieno[3,2-b]pyridin-2-yl)pyridin-3-yl)methyl)piperazine-1-carboxylate] | 8 |  | 0.8 | 80.6 |  | 
7 | COCCOCCOCCOCCOC1CN(Cc2ccc(-c3cc4nccc(Oc5ccc(NC(=O)NC6CC6)cc5F)c4s3)nc2)C1 [Compound 60, 1-(4-(2-(5-((3-(2,5,8,11-tetraoxamidecan-13-yloxy)azetidin-1-yl)methyl)pyridin-2-yl)thieno[3,2-b]pyridin-7-yloxy)-3-fluorophenyl)-3-cyclopropylurea] | 10 |  |  |  | 1.5 | 
8 | COCCOCCOCCOCCN(C(C)=O)C1CCN(Cc2ccc(-c3cc4nccc(Oc5ccc(NC(=O)NC6CC6)cc5F)c4s3)nc2)CC1 [Compound 65, N-(1-((6-(7-(4-(3-Cyclopropylureido)-2-fluorophenoxy)thieno[3,2-b]pyridin-2-yl)pyridin-3-yl)methyl)piperidin-4-yl)-N-(2,5,8,11-tetraoxamidecan-13-yl)acetamide] | 7 |  |  |  | 2 | 32.1
9 | COCCOCCOCCOCCN1CCC(N(Cc2ccc(-c3cc4nccc(Oc5ccc(NC(=O)NC6CC6)cc5F)c4s3)nc2)C(C)=O)CC1 [Compound 69, N-(1-(2,5,8,11-Tetraoxamidecan-13-yl)piperidin-4-yl)-N-((6-(7-(4-(3-cyclopropylureido)-2-fluorophenoxy)thieno[3,2-b]pyridin-2-yl)pyridin-3-yl)methyl)acetamide] | 12 |  |  |  | 25 | 
